# From patent US20130210034A1, “COMPLEX PHOSPHOPROTEIN ACTIVATION PROFILES” (BECKMAN COULTER, INC., priority 2005, published 2013)
# Values joined by “and” are separate entries in the source; they are usually repeats but may differ in a detail not shown here. Identical values can stand only once.
# Key:
# Assay in all cases: Cytokine-stimulated phosphorylation in immunophenotypically defined cell populations from healthy donor BM (flow cytometry);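 as to pERK S/N ratio: Phosphoprotein MFI normalized to lymphocyte MFI as internal negative control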;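 as to pS6 S/N ratio: Phosphoprotein MFI normalized to lymphocyte MFI as internal negative control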;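 as to pSTAT3 S/N ratio: Phosphoprotein MFI normalized to lymphocyte MFI as internal negative control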;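 as to pSTAT5 S/N ratio: Phosphoprotein MFI normalized to lymphocyte MFI as internal negative control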
# Assay type in all cases: cell-based, human
# pERK = settings: for pERK Percent (%) Responding Cells, Mean / pERK S/N ratio: healthy donor BM, mean ± SD
# Method: (§1) Bone marrow (BM) samples were collected in 7.5 mL Iscove's modified Dulbecco's medium (IMDM) supplemented with 100U penicillin, 0.01 mg/mL streptomycin, and 70 μg/mL heparin sodium salt from 10 patients undergoing hip replacement surgery, who were otherwise healthy. These patients were from a pool of surgery patients, age 49 to 77, and represented […] patients. […] These BM samples were rinsed twice with IMDM to release cells, filtered using a 100 μm Nylon cell strainer to remove marrow particles, and centrifuged for at RT fro 7 minutes at 200 g. The cell pellet was washed twice with sterile IMDM to remove traces of fat and re-suspended in IMDM to a concentration of 3×10^7 cells/mL.
# (§2) To assess the signal transduction response after growth factor simulation, a series comprising two sets of tubes including about 3×10^6 cells/100 μL were incubated at 37° C. for 30 minutes. After this pre-incubation period, tubes with then processes with either a stimulant or inhibitor. […] To examine the effects of protein phosphorylation inhibition, tubes were incubated with an inhibitor cocktail comprising 100 μM/100 μL UO126, 1 μM/100 μL LY294002, and 1 μM/100 μL rapamycin. One unstimulated tube receiving no stimulant or inhibitor was processed to assess basal levels of phospho-protein expression. After stimulation the cells were immediately fixed in 10% formaldehyde solution at 37° C. Pre-labeling with CD13, CD16 and CD64 antibodies was carried out 20 minutes prior to formaldehyde fixation. After fixation, one set of tubes was permeabilized without methanol for pAKT, pERK and pS6 staining and the other for 80% methanol permeabilized for pSTAT3 and pSTAT5 staining. After permeablization, the cells were washed in PBS with 2% BSA and blocked by re-suspended in 75 μL of PBS comprising 25% heat inactivated normal mouse serum, 25% normal rabbit serum. To stain cells with fluorescent conjugated monoclonal antibodies, samples were incubated on ice for 45 minutes in 100 μL of an antibody staining solution including either: 1) CD15-Pacific Orange, CD34-Phycoerythrin-Texas Red, CD117-Phycoerythrin-Cyanin 5.5, CD45-Allophycocyanin-Alexa Fluor 750 (or CD45-Pacific Orange, in which case CD15-Pacific Orange was omitted), pS6-Pacific Blue, pERK-Alexa Fluor 488 and pAKT-Alexa Fluor 647 or 2) CD15-Pacific Orange, CD34-Phycoerythrin-Texas Red, CD117-Phycoerythrin-Cyanin 5.5, CD45-Allophycocyanin-Alexa Fluor 750 or CD45-Pacific Blue, pSTAT3-Alexa Fluor 488 and pSTAT5-Phycoerythrin. The stained cells were washed twice with ice cold PBS containing 2% BSA and centrifuged at 800 g for 6 minutes at 4° C. The supernatant was discarded and cells re-suspended in 250 μL of chilled wash buffer for data acquisition. Stained cells were examined using either GALIOS flow cytometer (Beckman Coulter) or CYAN ADP (Beckman Coulter) equipped with 488 nm, 405 nm and 635 nm lasers to detect the degree of fluorescence. Data were analyzed using FCS Express (De Novo Software, CA) analysis software.
# (§3) Specific phosphoprotein expression of pERK, pS6, pAKT, pSTAT5, and pSTAT3 was examined in seven discrete phenotypically defined populations based on 7-color immunophenotyping (FIG. 1). The percent of responding (phosphorprotein positive) cells for each of these populations was determined from individual single parameter histograms based on a fixed integration region set on the inhibitor treated control at about 3% positives.
# pS6 = settings: for pS6 Percent (%) Responding Cells, Mean / pS6 S/N ratio: healthy donor BM, mean ± SD
# Method: as §1, §2, §3
# pSTAT5 = settings: healthy donor BM, mean ± SD
# Method: as §1, §2, §3
# pSTAT3 = settings: healthy donor BM, mean ± SD
# Method: as §1, §2, §3
# pAKT = settings: for pAKT Percent (%) Responding Cells, Mean / pAKT S/N ratio: healthy donor BM, mean ± SD
# Method: as §1, §2, §3
substance,measurement,setting,value
Stem Cell Factor [SCF],"pERK Percent (%) Responding Cells, Mean",pERK; CD34^+ (CD34^+/CD117^+ cells),89.8% and 89.8 ± 6.9%
same,pERK S/N ratio,pERK; CD34^+ (CD34^+/CD117^+ cells),13.3 and 13.3 ± 4.9
same,"pERK Percent (%) Responding Cells, Mean",pERK; CD117^+ (CD34^−/CD117^+ cells),67.7% and 67.7 ± 20.1%
same,pERK S/N ratio,pERK; CD117^+ (CD34^−/CD117^+ cells),8.6 ± 3.2
same,"pERK Percent (%) Responding Cells, Mean","pERK; G1, immature myeloid cells",1.6 ± 0.8%
same,pERK S/N ratio,"pERK; G1, immature myeloid cells",2.9 ± 0.6
same,"pERK Percent (%) Responding Cells, Mean","pERK; G2, intermediate myeloid cells",2.8 ± 2.1%
same,pERK S/N ratio,"pERK; G2, intermediate myeloid cells",2.7 ± 0.5
same,"pERK Percent (%) Responding Cells, Mean","pERK; G3, mature myeloid cells",6.5 ± 7.2%
same,pERK S/N ratio,"pERK; G3, mature myeloid cells",3.1 ± 0.6
same,"pERK Percent (%) Responding Cells, Mean","pERK; Mono, monocytes",13.6 ± 3.6%
same,pERK S/N ratio,"pERK; Mono, monocytes",3.2 ± 2.1
same,"pERK, Normal Sample (first AML5 line)","pERK; Table 7 comparison value, matches S/N ratio of Table 1",13.3
same,"pERK, Normal Sample","pERK; Table 7 comparison value, matches percent responding CD34^+ cells of Tables 1-5",89.8
same,"pS6 Percent (%) Responding Cells, Mean",pS6; CD34^+ (CD34^+/CD117^+ cells),81.7% and 81.7 ± 16.3%
same,pS6 S/N ratio,pS6; CD34^+ (CD34^+/CD117^+ cells),48.4 and 48.4 ± 39.3
same,pS6 fraction positive responding,"pS6; CD34^−CD117^+ cells, normal BM, non-homogeneous response",53.8%
same,"pS6 Percent (%) Responding Cells, Mean",pS6; CD117^+ (CD34^−/CD117^+ cells),51.9% and 51.9 ± 16.9%
same,pS6 S/N ratio,pS6; CD117^+ (CD34^−/CD117^+ cells),108.2 ± 94.9
same,"pS6 Percent (%) Responding Cells, Mean","pS6; G1, immature myeloid cells",2.1 ± 1.4%
same,pS6 S/N ratio,"pS6; G1, immature myeloid cells",3.3 ± 1.9
same,"pS6 Percent (%) Responding Cells, Mean","pS6; G2, intermediate myeloid cells",2.1 ± 1.2%
same,pS6 S/N ratio,"pS6; G2, intermediate myeloid cells",2.9 ± 1.8
same,"pS6 Percent (%) Responding Cells, Mean","pS6; G3, mature myeloid cells",3.8 ± 2.6%
same,pS6 S/N ratio,"pS6; G3, mature myeloid cells",3.5 ± 2.3
same,"pS6 Percent (%) Responding Cells, Mean","pS6; Mono, monocytes",43.5 ± 19.9%
same,pS6 S/N ratio,"pS6; Mono, monocytes",11.2 ± 12.3
same,"pSTAT5 Percent (%) Responding Cells, Mean",pSTAT5; CD34^+ (CD34^+/CD117^+ cells),11.6 ± 3.0%
same,pSTAT5 S/N ratio,pSTAT5; CD34^+ (CD34^+/CD117^+ cells),1.5 ± 0.9
same,"pSTAT5 Percent (%) Responding Cells, Mean",pSTAT5; CD117^+ (CD34^−/CD117^+ cells),7.4 ± 4.7%
same,pSTAT5 S/N ratio,pSTAT5; CD117^+ (CD34^−/CD117^+ cells),2.2 ± 0.7
same,"pSTAT5 Percent (%) Responding Cells, Mean","pSTAT5; G1, immature myeloid cells",6.8 ± 8.0%
same,pSTAT5 S/N ratio,"pSTAT5; G1, immature myeloid cells",3.1 ± 0.7
same,"pSTAT5 Percent (%) Responding Cells, Mean","pSTAT5; G2, intermediate myeloid cells",4.9 ± 5.6%
same,pSTAT5 S/N ratio,"pSTAT5; G2, intermediate myeloid cells",3.2 ± 0.7
same,"pSTAT5 Percent (%) Responding Cells, Mean","pSTAT5; G3, mature myeloid cells",6.9 ± 6.7%
same,pSTAT5 S/N ratio,"pSTAT5; G3, mature myeloid cells",3.8 ± 0.8
same,"pSTAT5 Percent (%) Responding Cells, Mean","pSTAT5; Mono, monocytes",9.5 ± 13.8%
same,pSTAT5 S/N ratio,"pSTAT5; Mono, monocytes",2.5 ± 0.6
same,"pSTAT3 Percent (%) Responding Cells, Mean",pSTAT3; CD34^+ (CD34^+/CD117^+ cells),7.3 ± 4.3%
same,pSTAT3 S/N ratio,pSTAT3; CD34^+ (CD34^+/CD117^+ cells),1.9 ± 0.2
same,"pSTAT3 Percent (%) Responding Cells, Mean",pSTAT3; CD117^+ (CD34^−/CD117^+ cells),2.6 ± 1.4%
same,pSTAT3 S/N ratio,pSTAT3; CD117^+ (CD34^−/CD117^+ cells),2.5 ± 0.6
same,"pSTAT3 Percent (%) Responding Cells, Mean","pSTAT3; G1, immature myeloid cells",3.0 ± 3.5%
same,pSTAT3 S/N ratio,"pSTAT3; G1, immature myeloid cells",3.3 ± 0.5
same,"pSTAT3 Percent (%) Responding Cells, Mean","pSTAT3; G2, intermediate myeloid cells",2.2 ± 1.8%
same,pSTAT3 S/N ratio,"pSTAT3; G2, intermediate myeloid cells",3.3 ± 0.5
same,"pSTAT3 Percent (%) Responding Cells, Mean","pSTAT3; G3, mature myeloid cells",4.7 ± 4.0%
same,pSTAT3 S/N ratio,"pSTAT3; G3, mature myeloid cells",3.6 ± 0.6
same,"pSTAT3 Percent (%) Responding Cells, Mean","pSTAT3; Mono, monocytes",4.4 ± 2.0%
same,pSTAT3 S/N ratio,"pSTAT3; Mono, monocytes",2.4 ± 0.3
same,"pAKT Percent (%) Responding Cells, Mean",pAKT; CD34^+ (CD34^+/CD117^+ cells),58.0% and 58.0 ± 27.3%
same,pAKT S/N ratio,pAKT; CD34^+ (CD34^+/CD117^+ cells),7.5 and 7.5 ± 5.7
same,"pAKT Percent (%) Responding Cells, Mean",pAKT; CD117^+ (CD34^−/CD117^+ cells),60.6% and 60.6 ± 33.5%
same,pAKT S/N ratio,pAKT; CD117^+ (CD34^−/CD117^+ cells),7.3 ± 5.4
same,"pAKT Percent (%) Responding Cells, Mean","pAKT; G1, immature myeloid cells",2.9 ± 2.4%
same,pAKT S/N ratio,"pAKT; G1, immature myeloid cells",2.2 ± 1.1
same,"pAKT Percent (%) Responding Cells, Mean","pAKT; G2, intermediate myeloid cells",3.9 ± 3.9%
same,pAKT S/N ratio,"pAKT; G2, intermediate myeloid cells",2.3 ± 1.0
same,"pAKT Percent (%) Responding Cells, Mean","pAKT; G3, mature myeloid cells",4.2 ± 3.0%
same,pAKT S/N ratio,"pAKT; G3, mature myeloid cells",2.6 ± 1.2
same,"pAKT Percent (%) Responding Cells, Mean","pAKT; Mono, monocytes",6.5 ± 8.2%
same,pAKT S/N ratio,"pAKT; Mono, monocytes",2.4 ± 1.0
same,"pAKT, Normal Sample",pAKT; Table 7 comparison value,58.0
